Legend:
[1] = system: EBV-infected human B cells; experiment: chemotaxis trans well assay; assay type: cell-based; settings: 3 hr migration
Method: B cells (RS11846 or EBV-infected human B-cells) or murine bone marrow-derived dendritic cells were washed once with medium and resuspended at 1×10^6/ml. 100 μl of this suspension was added into the wells of the filter plate and gently placed into the receiver plate containing 150 μl of a given compound dilution. The final DMSO concentration was less then 0.1%. After migration for 3 hr at 37° C. in an incubator, the filter plate was carefully removed from the receiver plate and discarded. The migrated cells in the receiver plate were resuspended and transferred into round-bottom 96-well plate, centrifuged and resuspended in 100 μl PBS containing 2% FCS and 0.1% NaN3 (FACS buffer). The input cells (100 μl) were similarly processed. For the calculation of the specific migration, a fixed number of beads (10000; Invitrogen #PCB100)) in 20 μl FACS buffer was added and the suspension was analyzed by flow cytometry using a FACS instrument PAS™ (Partec). Cells were identified based on their forward scatter (FSC) and side scatter (SSC) pattern. Chemotaxis is expressed either as total cell number or as percent of input cells.
Human peripheral B lymphocytes (PBL) were prepared from peripheral blood as a cell suspension by centrifugation on Ficoll plaque. PBL were rinsed in PBS and resuspended in complete RPMI 1640 medium (10% FCS and antibiotics) at the concentration of 2×10^7/cell/ml. […]

[2] = system: 26 GPCR binding assays, 9 GPCR functional assays, 40 kinase assays, ion channels, proteases, transporter and enzyme assays; settings: data not shown
Excerpt: So far oxysterols have been noted to have various physiological activities namely regulate the expression of genes that participate in both sterol and fat metabolism, serve as substrates for the synthesis of bile acids, and are intermediates in the transfer of sterols from the periphery to the liver (Russell, D. W. (2000). Oxysterol biosynthetic enzymes. Biochim. Biophys. Acta 1529, 126-135). […] This included binding assays for 26 different GPCRs, functional assays of 9 different GPCRs, 40 kinase assays, as well as selected ion channels, proteases, transporter and enzyme assays.

hEBI2 = hEBI2 (Homo sapiens, UniProt P32249); experiment: luminescent aequorin functional assay, hEBI2 CHO-Aeq (Gqi5) cells; assay type: cell-based; parameters: expressed in transfected cells; host or cells: CHO-K1 expressing apoaequorin (CHO-Aeq) with Gqi5; line E2
Sequence of hEBI2 (P32249 whole entry): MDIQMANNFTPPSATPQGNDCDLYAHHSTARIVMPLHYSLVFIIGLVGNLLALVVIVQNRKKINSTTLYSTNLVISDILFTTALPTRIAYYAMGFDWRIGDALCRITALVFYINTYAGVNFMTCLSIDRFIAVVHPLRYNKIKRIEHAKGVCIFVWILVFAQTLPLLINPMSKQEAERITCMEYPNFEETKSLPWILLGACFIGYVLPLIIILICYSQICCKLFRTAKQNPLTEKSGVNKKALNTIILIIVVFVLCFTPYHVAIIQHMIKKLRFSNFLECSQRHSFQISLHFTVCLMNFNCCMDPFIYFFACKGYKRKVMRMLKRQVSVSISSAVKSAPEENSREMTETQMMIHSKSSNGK
Excerpt: The human EBI2 was inserted into the pEFIN3 vector at the EcoRI and XbaI sites in the multiple cloning site. Mouse EBI2 was cloned using RT-PCR from mouse genomic DNA and corresponded to the Genbank accession number Q3U6B2. The mouse EBI2 was inserted into the pEFIN3 vector at the EcoRI and XbaI sites in the multiple cloning site. Plasmids expressing human and mouse EBI2 were stably transfected in CHO-K1 and HEK293 cells expressing the apoaequorin (CHO-Aeq and HEK-Aeq) (Table 1). mRNA sequence integrity of EBI2 gene was checked using RT-PCR at T0 & T30 culture times in CHO cells.
hEBI2 CHO-Aeq cell lines were screened in a luminescent aequorin functional assay against proprietary libraries of natural ligands and collection of tissue extracts.
3 oxysterol and 3 vitamin D3 compounds were tested for EBI2 activation in an aequorin assay.

Row | Structure (SMILES) | attraction (migration) of EBV-infected B cells [1] | interaction in safety panel [2] | efficacy compared to the ATP response (hEBI2; ATP response = endogenous P2Y receptors) | activation of hEBI2 in different CHO-Aeq cell backgrounds (hEBI2; Gqi5 and Gα16 (=WTA11)) | specificity and selectivity of hEBI2 activation (hEBI2; compared to WT CHO-AeqGqi5 cells and unrelated GPCRs HCR and GPR23)
1 | C[C@H](CCCC(C)(C)O)[C@H]1CC[C@H]2[C@@H]3[C@H](O)C=C4C[C@@H](O)CC[C@]4(C)[C@H]3CC[C@]12C [7a,25DHC, cholest-5-ene-3b,7a,25-triol] | potently attract | In none of these assay did we see a significant interaction | – | – | –
2 | C[C@H](CCCC(C)(C)O)[C@H]1CC[C@H]2[C@@H]3[C@@H](O)C=C4C[C@@H](O)CC[C@]4(C)[C@H]3CC[C@]12C [7b,25DHC, cholest-5-ene-3b,7b,25-triol] | – | – | greater than 100% | activation | specifically and selectively activates
